In the oligonucleotide strings, read from the 5' end, every base follows the letter of its sugar. An asterisk marks phosphorothioate; unmarked linkages are phosphodiester. Other units and linkages are bracketed, terminal groups are in braces. A string of capitals states the bases alone. e = 2'-O-(2-methoxyethyl) (MOE); [5mC] = 5-methylcytosine; d = 2'-deoxy (DNA)
How the values were obtained:
[1] = system: mir-143 miRNA binding site; test: GFP mir-143 sensor reporter in T-REx-HeLa cells; format: cell-based, human; conditions: for Mean fluorescence: T-REx-HeLa cells, 24 hours post-transfection
Description: Reporter systems have been developed herein to assess the ability of miRNA mimics to provoke a gene silencing response and to assess whether antisense oligomeric compounds targeting miRNAs can inhibit gene silencing activity. The T-REx™-HeLa cell line (Invitrogen Corp., Carlsbad, Calif.) was used for either stable or transient transfections with plasmids constitutively expressing miRNAs, pre-miRNAs, pri-miRNAs or mimics thereof, and, in some cases, antisense oligomeric compounds targeting the expressed miRNA were also transfected into the cells. It is understood that other mammalian cells lines can also be used in this reporter system. T-REx™-HeLa cells were routinely cultured in DMEM, high glucose (Invitrogen Corporation, Carlsbad, Calif.), supplemented with 10% fetal bovine serum (Invitrogen Corporation). […] Cells were harvested when they reached 90% confluence, and on the day before transfection with expression or reporter plasmids (described in detail below), the T-REx™-HeLa cells were seeded onto 24-well plates at 50,000 cells/well. The following day, cells were transfected according to standard published procedures with various combinations of plasmids using 2 μg Lipofectamine™ 2000 Reagent (Invitrogen) per μg of plasmid DNA. When transfecting oligomeric compounds, 1-3 μg of Lipofectamine™ 2000 Reagent was used per 100 nM oligomeric compound.
Plasmids used are as follows: The pcDNA3.1©/NT-GFP (Invitrogen) plasmid, containing a CMV promoter controlling expression of a GFP reporter sequence at the N-terminus of the transcription start site was used as a control plasmid. The pcDNA3.1©/NT-GFP-mir-143 sensor plasmid contains (in addition to the elements above) three 22-nucleotide sites encoding the mir-143 miRNA binding site, downstream of the GFP coding sequence and upstream of the polyadenylation signal. The pCR3-pri-mir-143 plasmid (“pri-mir-143”) is a CMV promoter-driven constitutive expression plasmid which expresses the 110-nucleotide mir-143 pri-miRNA sequence (SEQ ID NO: 38), to act as a mir-143 pri-miRNA mimic. The pCR3-pri-mir control (“pri-mir-control”) is a CMV promotor-driven constitutive expression plasmid which is designed to express a similar 110-nucleotide pri-miRNA sequence ([…] CAGC; SEQ ID NO: 862) wherein the mature mir-143 sequence has been replaced with an unrelated sequence and the predicted complementary strand opposite it within the pri-miRNA structure is replaced with a nearly complementary sequence in order to preserve the stem loop as well as the bulge structure of the natural mir-143 pri-miRNA. Additionally, in order to test the effect of an oligomeric compound targeting a miRNA, the T-REx™-HeLa cells were also transfected with the uniform 2′-MOE phosphorothioate (PS) antisense oligomeric compound ISIS Number 327901 (SEQ ID NO: 319), targeted to mir-143 previously described.
Twenty-four hours post-transfection, cells were trypsinized and GFP fluorescence was analyzed by flow cytometry.

T47D cells = test: Caspase-3 activity assay (apoptosis) in T47D cells; conditions: T47D cells, 48 hours
IL-6 mRNA = IL-6 mRNA in LPS-activated primary murine macrophages; format: cell-based, mouse; conditions: average of 3 treatments
Method in brief: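 Thioglycollate-elicited peritoneal macrophages from female C57Bl/6 mice, transfected with miRNA-targeting oligomeric compounds via FuGENE 6 (1 μL per 100 nM compound) for ~24–28 h at 37 °C, optionally primed 4 h with 100 ng/mL IFN-gamma, then stimulated 24 h with 100 ng/mL LPS. IL-6 mRNA quantified by real-time PCR.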

Substance	IL-6 mRNA expression, % UTC (IL-6 mRNA; 75 nM, +IFN) [% UTC]	IL-6 mRNA expression, % UTC (IL-6 mRNA; 75 nM, −IFN) [% UTC]	IL-6 mRNA expression, % UTC (IL-6 mRNA; 150 nM, +IFN) [% UTC]	IL-6 mRNA expression, % UTC (IL-6 mRNA; 150 nM, −IFN) [% UTC]	IL-6 mRNA expression, % UTC (IL-6 mRNA; 300 nM, +IFN) [% UTC]	IL-6 mRNA expression, % UTC (IL-6 mRNA; 300 nM, −IFN) [% UTC]	IL-6 mRNA expression, % UTC (IL-6 mRNA; 600 nM, +IFN) [% UTC]	IL-6 mRNA expression, % UTC (IL-6 mRNA; 600 nM, −IFN) [% UTC]	also measured
TGAGCTACAGTGCTTCATCTCA [ISIS 327901] (chemistry not given here) [uniform 2′-MOE PS; targets mir-143]	–	–	–	–	–	–	–	–	recovery of GFP fluorescence ([1]; with 20 nM mir-143 dsRNA, 4-, 20- or 100 nM): blocked the inhibitory effect of the mir-143 dsRNA oligomeric compound
328691 (e[5mC]*e[5mC]*e[5mC]*e[5mC]*eA*dT*d[5mC]*dT*dT*dA*dG*d[5mC]*dA*dT*d[5mC]*eT*eA*eA*eG*eG) [compound 328691]	–	–	–	–	–	–	–	–	Fold Increase over UTC (caspase activity) (T47D cells; 200 nM, relative to untreated control): 0.9
327901 (antisense eT*eG*eA*eG*e[5mC]*eT*eA*e[5mC]*eA*eG*eT*eG*e[5mC]*eT*eT*e[5mC]*eA*eT*e[5mC]*eT*e[5mC]*eA) [compound 327901]	–	–	–	–	–	–	–	–	Mean fluorescence ([1]; oligo with GFP mir-143 sensor only): 4.2 arbitrary units; Mean fluorescence ([1]; oligo with pri-mir-143, no GFP plasmid): 3.7 arbitrary units; Mean fluorescence ([1]; oligo with pri-mir-143 and GFP mir-143 sensor): 4.1 arbitrary units
327921 (antisense e[5mC]*eT*eT*e[5mC]*e[5mC]*eA*eG*eT*e[5mC]*eG*eG*eG*eG*eA*eT*eG*eT*eT*eT*eA*e[5mC]*eA) [compound 327921]	122	223	144	294	287	522	313	632	–
328382 (e[5mC]*eA*eG*eA*e[5mC]*dT*d[5mC]*d[5mC]*d[5mC]*dA*dA*d[5mC]*dT*dG*dA*e[5mC]*e[5mC]*eA*eG*eA) [compound 328382]	–	–	–	–	–	–	–	–	Fold Increase over UTC (caspase-3 activity, apoptosis) (T47D cells; 200 nM oligomeric compound, experiment of Table 10): 0.9 fold
327941 (antisense eA*eA*e[5mC]*e[5mC]*e[5mC]*eA*e[5mC]*e[5mC]*eG*eA*e[5mC]*eA*eG*e[5mC]*eA*eA*eT*eG*eA*eA*eT*eG*eT*eT) [compound 327941]	181	293	197	325	197	271	301	501	–

Reference: US8178506B2, “Oligomeric compounds and compositions for use in modulation of small non-coding RNAs” (Regulus Therapeutics Inc., priority 2003, dated 2012)
